ChEMBL document CHEMBL1133764, “Synthesis and cytokine modulation properties of pyrrolo[2, 3-d]-4-pyrimidone nucleosides” (2000)

Columns and labels:
T-cell line [1] = assay: Effect (10 uM) on PMA/ION-stimulated T-cell expression of the type 1 cytokine IL-2, which was determined in cell free supernatants by ELISA; format: functional, cell-based; conditions: Homo sapiens
T-cell line [2] = assay: Effect (10 uM) on PMA/ION-stimulated T-cell expression of the type 2 cytokine IL-5, which was determined in cell free supernatants by ELISA; format: functional, cell-based; conditions: Homo sapiens
T-cell line [3] = assay: Effect (10 uM) on PMA/ION-stimulated T-cell expression of the type 1 cytokine IFNgamma, which was determined in cell free supernatants by ELISA; format: functional, cell-based; conditions: Homo sapiens
T-cell line [4] = assay: Effect (10 uM) on PMA/ION-stimulated T-cell expression of the type 1 cytokine TNF-alpha, which was determined in cell free supernatants by ELISA; format: functional, cell-based; conditions: Homo sapiens
T-cell line [5] = assay: Effect (10 uM) on PMA/ION-stimulated T-cell expression of the type 2 cytokine IL-4, which was determined in cell free supernatants by ELISA; format: functional, cell-based; conditions: Homo sapiens
T-cell line [6] = assay: Effect (10 uM) on PMA/ION-stimulated T-cell expression of the type 1 cytokine IFN gamma, which was determined in cell free supernatants by ELISA; format: functional, cell-based; conditions: Homo sapiens
T-cell line [7] = assay: Effect at 10 uM on PMA/ION-stimulated T-cell expression of the type 1 cytokine IFNgamma, determined in cell free supernatants by ELISA; format: functional, cell-based; conditions: Homo sapiens
T-cell line [8] = assay: Effect at 10 uM on PMA/ION-stimulated T-cell expression of the type 2 cytokine IL-4, determined in cell free supernatants by ELISA; format: functional, cell-based; conditions: Homo sapiens
T-cell line [9] = assay: Effect (10 uM) on PMA/ION-stimulated T-cell expression of the type 1 cytokine, IL-5 was determined in cell free supernatants by ELISA; format: functional, cell-based; conditions: Homo sapiens
T-cell line [10] = assay: (§1) Effect (10 uM) on PMA/ION-stimulated T-cell expression of the type 1 cytokine, IFNgamma was determined in cell free supernatants by ELISA; format: functional, cell-based; conditions: Homo sapiens
T-cell line [11] = assay: Effect (10 uM) on PMA/ION-stimulated T-cell expression of the type 1 cytokine,TNF-alpha was determined in cell free supernatants by ELISA; format: functional, cell-based; conditions: Homo sapiens
T-cell line [12] = assay: Effect (10 uM) on PMA/ION-stimulated T-cell expression of the type 1 cytokine,IL-2 was determined in cell free supernatants by ELISA; format: functional, cell-based; conditions: Homo sapiens
T-cell line [13] = assay: Effect on PMA/ION-stimulated T-cell expression of the type 1 cytokine,IL-5 was determined in cell free supernatants by ELISA; format: functional, cell-based; conditions: Homo sapiens
T-cell line [14] = assay: Effect on PMA/ION-stimulated T-cell expression of the type 1 cytokine,IL-2 was determined in cell free supernatants by ELISA; format: functional, cell-based; conditions: Homo sapiens
T-cell line [15] = assay: Effect on PMA/ION-stimulated T-cell expression of the type 1 cytokine,TNF-alpha was determined in cell free supernatants by ELISA; format: functional, cell-based; conditions: Homo sapiens
T-cell line [16] = assay: Effect (10 uM) on PMA/ION-stimulated T-cell expression of the type 2 cytokine, IL-4 was determined in cell free supernatants by ELISA; format: functional, cell-based; conditions: Homo sapiens
T-cell line [17] = assay: Effect on PMA/ION-stimulated T-cell expression of the type 1 cytokine, IFNgamma was determined in cell free supernatants by ELISA; format: functional, cell-based; conditions: Homo sapiens
T-cell line [18] = assay: as §1; format: functional, Homo sapiens

| SMILES | Concentration (T-cell line [5]) [pg/mL] | Concentration (T-cell line [6]) [pg/mL] | Concentration (T-cell line [7]) [pg/mL] | Concentration (T-cell line [8]) [pg/mL] | other results |
| --- | --- | --- | --- | --- | --- |
| N/C(=N\O)c1cn([C@@H]2O[C@H](CO)[C@@H](O)[C@H]2O)c2nc[nH]c(=O)c12 | 236 |  |  |  | Concentration (T-cell line [1]): 18000 pg/mL; Concentration (T-cell line [2]): 73 pg/mL; Concentration (T-cell line [3]): 7270 pg/mL; Concentration (T-cell line [4]): 1590 pg/mL |
| C[C@@H](O)[C@H]1OC(n2cc(C(=N)NO)c3c(O)ncnc32)[C@H](O)[C@@H]1O (stereo not given in full) | 186 | 12300 |  |  |  |
| N=C(NN)c1cn([C@@H]2O[C@H](CO)[C@@H](O)[C@@H]2O)c2nc[nH]c(=O)c12 |  |  | 9860 | 117 |  |
| NC(=O)c1cn(C2O[C@H](CO)[C@@H](O)[C@H]2O)c2ncnc(O)c12 (single isomer, unassigned; (+)) |  |  |  | 183 | Concentration (T-cell line [9]): 67 pg/mL; Concentration (T-cell line [10]): 9140 pg/mL; Concentration (T-cell line [11]): 2170 pg/mL; Concentration (T-cell line [12]): 24400 pg/mL |
| N=C(N)c1cn(C2CCC(CO)O2)c2ncnc(O)c12 (single isomer, unassigned; (+)) | 234 | 13300 |  |  |  |
| N/C(=N\O)c1cn(C2CCC(CO)O2)c2ncnc(O)c12 (single isomer, unassigned; (+)) | 152 | 11200 |  |  |  |
| NCc1cn([C@@H]2O[C@H](CO)[C@@H](O)[C@@H]2O)c2nc[nH]c(=O)c12 |  |  | 10800 | 142 |  |
| N=C(NN)c1cn([C@@H]2O[C@H](CO)[C@@H](O)[C@H]2O)c2nc[nH]c(=O)c12 |  |  | 11900 | 207 |  |
| N=C(N)C1=CN([C@H]2C[C@H](O)[C@@H](CO)O2)C2=NC=NC(=O)C12 (single isomer, unassigned; (+)) | 258 | 14700 |  |  |  |
| CCCCCCCCCCCCC(=O)O[C@@H]1[C@@H](C)[C@@]2(O)[C@@H](C=C(CO)C[C@]3(O)C(=O)C(C)=C[C@@H]23)[C@@H]2C(C)(C)[C@]12OC(C)=O.C[C@H](CCC(=O)O)C[C@H](C)C[C@H](C)/C(O)=C/C(=O)[C@H](C)C[C@H](C)C/C=C/[C@@H](C)[C@@H](O)[C@@H](C)[C@@H](O)C[C@@H]1CC[C@@](C)([C@H]2CC[C@@](C)([C@@H](C)O)O2)O1 |  |  | 10400 |  | Concentration (T-cell line [13]): 93 pg/mL; Concentration (T-cell line [14]): 27700 pg/mL; Concentration (T-cell line [15]): 2150 pg/mL; Concentration (T-cell line [16]): 162 pg/mL; Concentration (T-cell line [17]): 10400 pg/mL |
| N#CC1=CN([C@H]2C[C@H](O)[C@@H](CO)O2)C2=NC=NC(=O)C12 (single isomer, unassigned; (+)) |  |  | 11900 | 194 |  |
| C[C@H]1OC(n2cc(C(=N)N)c3c(O)ncnc32)[C@H](O)[C@@H]1O (single isomer, unassigned; (+)) |  |  | 1310 | 152 |  |
| C[C@H](O)[C@H]1OC(n2cc(C#N)c3c(O)ncnc32)[C@H](O)[C@@H]1O (single isomer, unassigned; (+)) |  |  | 10900 | 146 |  |
| C[C@]1(CO)OC(n2cc(C(=N)N)c3c(O)ncnc32)[C@H](O)[C@@H]1O (single isomer, unassigned; (+)) | 144 | 9550 |  |  |  |
| NCc1cn([C@@H]2O[C@H](CO)[C@@H](O)[C@H]2O)c2nc[nH]c(=O)c12 |  |  | 9340 | 125 |  |
| C[C@H]1OC(n2cc(C#N)c3c(O)ncnc32)[C@H](O)[C@@H]1O (single isomer, unassigned; (+)) |  |  | 9140 | 147 |  |
| C[C@@H](O)[C@H]1OC(n2cc(C(=N)N)c3c(O)ncnc32)[C@H](O)[C@@H]1O (single isomer, unassigned; (+)) |  |  | 12100 | 159 |  |
| C[C@H](O)[C@H]1OC(n2cc(C(=N)NO)c3c(O)ncnc32)[C@H](O)[C@@H]1O (single isomer, unassigned; (+)) | 162 | 11400 |  |  |  |
| C[C@H]1OC(n2cc(C(=N)NO)c3c(O)ncnc32)[C@H](O)[C@@H]1O (single isomer, unassigned; (+)) | 149 | 10600 |  |  |  |
| C[C@@H](O)[C@H]1OC(n2cc(C#N)c3c(O)ncnc32)[C@H](O)[C@@H]1O (stereo not given in full) |  |  | 13300 | 160 |  |
| N/C(=N\O)c1cn([C@@H]2O[C@H](CO)[C@@H](O)[C@@H]2O)c2nc[nH]c(=O)c12 | 132 | 10400 |  |  |  |
| C[C@]1(CO)OC(n2cc(C#N)c3c(O)ncnc32)[C@H](O)[C@@H]1O (single isomer, unassigned; (+)) |  |  | 9030 | 147 |  |
| N/C(=N\O)c1cn([C@H]2O[C@@H](CO)[C@H](O)[C@@H]2O)c2nc[nH]c(=O)c12 | 142 | 9660 |  |  |  |
| NC(=S)c1cn(C2O[C@H](CO)[C@@H](O)[C@H]2O)c2ncnc(O)c12 (stereo not given in full) |  |  |  | 176 | Concentration (T-cell line [13]): 59 pg/mL; Concentration (T-cell line [14]): 23000 pg/mL; Concentration (T-cell line [15]): 2220 pg/mL; Concentration (T-cell line [17]): 7480 pg/mL |
| N=C(N)c1cn([C@@H]2O[C@H](CO)[C@@H](O)[C@H]2O)c2nc[nH]c(=O)c12 |  |  |  | < 557 | Concentration (T-cell line [9]): < 127 pg/mL; Concentration (T-cell line [11]): < 968 pg/mL; IFN gamma concentration (T-cell line [18]): <5919 pg/mL; Concentration (T-cell line [12]): < 12700 pg/mL |
| C[C@H](O)[C@H]1OC(n2cc(C(=N)N)c3c(O)ncnc32)[C@H](O)[C@@H]1O (single isomer, unassigned; (+)) |  |  | 10700 | 146 |  |
| N=C(N)c1cn([C@@H]2O[C@H](CO)[C@@H](O)[C@@H]2O)c2nc[nH]c(=O)c12 |  |  | 7790 | 131 |  |
